Source: PMC3930709, “Selective Activation of hTRPV1 by N-Geranyl Cyclopropylcarboxamide, an Amiloride-Insensitive Salt Taste Enhancer” (PLoS ONE, 2014)
Where two headings read alike, the source gives them in different places.

How the values were obtained:
αβγ hENaC [1] = target: T1, αβγ hENaC (Homo sapiens, UniProt P37088+P51168+P51170); design: method as in PMID 18326490; conditions: read-out: EC50 of S3969 obtained by patch-clamp; cited from earlier work
T1 construct: GFP; host or cells: HEK293T
T1 sequence (P37088 1-669): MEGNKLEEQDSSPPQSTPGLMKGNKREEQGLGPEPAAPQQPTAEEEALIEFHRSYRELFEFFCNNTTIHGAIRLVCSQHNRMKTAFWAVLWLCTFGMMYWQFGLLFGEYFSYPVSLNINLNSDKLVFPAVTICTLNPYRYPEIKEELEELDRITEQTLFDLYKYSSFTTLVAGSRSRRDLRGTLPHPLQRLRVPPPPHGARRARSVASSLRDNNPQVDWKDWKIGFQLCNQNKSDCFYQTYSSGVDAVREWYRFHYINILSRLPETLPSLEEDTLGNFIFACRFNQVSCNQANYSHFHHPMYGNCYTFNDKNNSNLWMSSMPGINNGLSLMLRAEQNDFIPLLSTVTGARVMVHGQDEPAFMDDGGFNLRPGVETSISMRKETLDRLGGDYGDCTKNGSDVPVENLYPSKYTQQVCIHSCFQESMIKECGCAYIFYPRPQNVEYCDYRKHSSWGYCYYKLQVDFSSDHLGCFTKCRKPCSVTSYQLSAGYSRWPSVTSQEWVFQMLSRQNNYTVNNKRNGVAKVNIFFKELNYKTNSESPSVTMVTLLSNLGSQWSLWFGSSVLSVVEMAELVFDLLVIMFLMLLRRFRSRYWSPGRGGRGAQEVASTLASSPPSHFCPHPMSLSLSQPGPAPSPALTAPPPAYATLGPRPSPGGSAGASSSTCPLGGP
T1 sequence (P51168 1-640): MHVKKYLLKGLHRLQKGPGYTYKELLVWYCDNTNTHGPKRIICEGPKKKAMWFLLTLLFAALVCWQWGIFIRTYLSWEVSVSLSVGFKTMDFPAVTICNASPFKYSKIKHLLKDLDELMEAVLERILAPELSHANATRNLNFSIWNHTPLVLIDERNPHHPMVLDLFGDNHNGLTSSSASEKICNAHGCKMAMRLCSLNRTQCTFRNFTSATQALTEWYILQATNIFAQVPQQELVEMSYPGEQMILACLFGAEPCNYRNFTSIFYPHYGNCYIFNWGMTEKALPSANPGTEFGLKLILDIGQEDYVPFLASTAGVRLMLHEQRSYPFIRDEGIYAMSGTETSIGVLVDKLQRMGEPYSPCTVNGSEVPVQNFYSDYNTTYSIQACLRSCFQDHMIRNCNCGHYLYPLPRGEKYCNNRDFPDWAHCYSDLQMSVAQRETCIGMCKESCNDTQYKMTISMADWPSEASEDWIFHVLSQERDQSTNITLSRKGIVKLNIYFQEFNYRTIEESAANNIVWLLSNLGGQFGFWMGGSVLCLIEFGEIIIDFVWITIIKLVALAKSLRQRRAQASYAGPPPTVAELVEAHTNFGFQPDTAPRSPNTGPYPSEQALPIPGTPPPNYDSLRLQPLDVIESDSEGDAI
T1 sequence (P51170 1-649): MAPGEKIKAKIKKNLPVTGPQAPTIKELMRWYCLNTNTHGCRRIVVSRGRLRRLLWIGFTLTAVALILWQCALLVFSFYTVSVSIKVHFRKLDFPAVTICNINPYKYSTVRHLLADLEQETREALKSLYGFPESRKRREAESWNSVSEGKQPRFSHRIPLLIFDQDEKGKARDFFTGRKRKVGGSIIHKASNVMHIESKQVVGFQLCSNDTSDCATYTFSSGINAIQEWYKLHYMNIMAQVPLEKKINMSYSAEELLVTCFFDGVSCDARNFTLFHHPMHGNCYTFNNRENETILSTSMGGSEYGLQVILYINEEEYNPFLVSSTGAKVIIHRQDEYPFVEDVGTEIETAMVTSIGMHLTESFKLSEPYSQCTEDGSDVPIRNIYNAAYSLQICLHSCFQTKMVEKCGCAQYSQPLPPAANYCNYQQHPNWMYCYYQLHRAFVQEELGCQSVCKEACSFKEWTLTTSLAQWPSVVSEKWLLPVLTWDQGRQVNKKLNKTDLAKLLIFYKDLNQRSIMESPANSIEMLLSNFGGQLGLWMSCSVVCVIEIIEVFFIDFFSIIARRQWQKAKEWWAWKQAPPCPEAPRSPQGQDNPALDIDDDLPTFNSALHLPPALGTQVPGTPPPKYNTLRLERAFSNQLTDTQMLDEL

αβγ hENaC [2] = target: T1, αβγ hENaC; assay: Membrane potential assay (FMP dye) on αβγ hENaC-expressing cells; assay type: cell-based; conditions: 0.03-10 µM; read-out: EC50, depolarization of membrane potential in hENaC expressing cells
Description: The α, β, and γ hENaC subunits were cloned from OriGene (Rockville, MD; GenBank accession number […] for SCNN1A, NM_000336 for SCNN1B and NM_001039 for SCNN1G). α, GFP-tagged β, and γ hENaC were cloned into a CMV promoter-based vector and expressed constitutively. The HEK293T cells were seeded onto a 35 mm dish and transfected with α, β, and γ hENaC expression plasmid using Lipofectamine 2000 (Invitrogen). Then, transfected cells were seeded onto 96-well black-wall plate for 18–26 h prior to their use in an experiment.
hENaC-expressing cells were characterized using FLIPER Membrane Potential (FMP) Assay Kit (Molecular Devices Corporation, Sunnyvale, CA, USA). In this assay, changes in the membrane potential were quantified via fluorescence change caused by FMP dye. The hENaC-expressing cells were washed with assay buffer (containing: 130 mM NaCl, 10 mM glucose, 5 mM KCl, 2 mM CaCl2, 1.2 mM MgCl2, and 10 mM HEPES, pH adjusted to 7.4 with NaOH) and subsequently, FMP blue-dye in assay buffer was loaded into the cells at room temperature for 30 min. After dye treatment, S3969 (0.03−10 µM), an ENaC agonist, S3969+Bz (ENaC antagonist, 0.01 µM), or NGCC (0.01−10 µM) was treated to hENaC-expressing cells. The plate was assayed in a FlexStation III plate reader (Molecular devices Corporation) by excitation at 530 nm and measuring the emission at 560 nm.

[3] = tested on: chorda tympani (CT) taste nerve response to NaCl; design: method as in PMID 12736236, PMID 16809639; conditions: cited from earlier work
[4] = tested on: lingual surface potential to salt stimuli; design: method as in PMID 12736236, PMID 16809639; conditions: amiloride 100 µM, humans, gustometer; cited from earlier work
human αβγ ENaC = tested on: human αβγ ENaC; design: method as in PMID 18326490; conditions: cited from earlier work
human δβγ ENaC = tested on: human δβγ ENaC; design: method as in PMID 18326490; conditions: cited from earlier work

| EC50 (αβγ hENaC [2]) [nM] | Compound | EC50 (αβγ hENaC [1]) [nM] | inhibition of chorda tympani (CT) taste nerve response to NaCl [3] | reduction of lingual surface potential to salt stimuli [4] | IC50 (human αβγ ENaC) [nM] | IC50 (human δβγ ENaC) [nM] |
| --- | --- | --- | --- | --- | --- | --- |
| 1260 ± 290 | Cc1cccc2[nH]cc(SC(CC(C)C)C(=O)NCCO)c12 (stereo not drawn) [S3969] | 1200 ± 100 |  |  |  |  |
|  | N=C(N)NC(=O)c1nc(Cl)c(N)nc1N [amiloride] |  | about 70% | 5–40% | ~110 | ~2700 |
